# Experimental data reported in patent US20190085289A1, “COMPOSITIONS AND METHODS FOR PATHOGEN INACTIVATION OF PLATELETS” (Cerus Corporation, priority 2017, published 2019).
# Marks after values point to notes of the source that are not given here.
# Test system: calicivirus FCV
# Experiment: FCV inactivation with 150 μM S-59 after pre-incubation in PAS/Plasma, plaque assay
# Type: cell-based, feline calicivirus (FCV)
# Conditions: for Normalized FCV Log Inactivation/mL / FCV Log Inactivation/mL / FCV Titer, 3J TEST: S-59 ~150 μM, UVA ~3 J/cm^2; for Normalized FCV Log Inactivation/mL: normalized to the FCV pool titer; for FCV Log Inactivation/mL: vs 0J control of same time; for FCV Titer, 3J TEST: platelets in PAS/Plasma 65%/35%
# Description: From the results of Examples 1 and 2, showing that amotosalen is stable in PAS and PAS/Plasma, an additional study was performed that evaluated the level of inactivation of the calicivirus FCV with S-59 after extended incubation in PAS/Plasma. In this study, platelets in PAS/Plasma (65%/35%) were pooled to approximately 1320 mL, with approximately 16×10^11 total platelets, and spiked with a stock of the calicivirus FCV at a 1:100 dilution. A sample was taken from the FCV-spiked platelet pool to determine initial titer. The FCV-spiked platelets were then split into 5 units, at approximately 260 mL each, with approximately 3.2×10^11 platelets per unit. Each unit was dosed with S-59 at approximately 150 μM concentration, which is the concentration used commercially in the INTERCEPT® Blood System for pathogen inactivation treatment. Following the addition of S-59, the platelet units were incubated for 0, 2, 4, 8 or 24 hr. A control sample was taken at each time point for virus titer determination and HPLC analysis of S-59 concentration pre-UVA treatment, followed by UVA light exposure at ˜3 J/cm^2 to complete the photochemical treatment process for all test samples. Following UVA treatment, the control and test samples were evaluated for inactivation of FCV using a standard virological plaque assay.
compound,measurement,setting,value
"Cc1oc2c(C)c3oc(=O)cc(C)c3cc2c1COCCN [S-59, 3-(2-aminoethoxymethyl)-2,5,9-trimethylfuro[3,2-g]chromen-7-one]",level of FCV inactivation,S-59/PAS/Plasma incubated 2 or more hours prior to UVA exposure,below the limit of detection
same,Normalized FCV Log Inactivation/mL,pre-incubation T = 0 hr,1.4 Log/mL
same,FCV Log Inactivation/mL,pre-incubation T = 0 hr,1.2 Log/mL
same,Normalized FCV Log Inactivation/mL,pre-incubation T = 2 hr,>5.8 Log/mL
same,FCV Log Inactivation/mL,pre-incubation T = 2 hr,>5.4 Log/mL
same,Normalized FCV Log Inactivation/mL,pre-incubation T = 4 hr,>5.8 Log/mL
same,FCV Log Inactivation/mL,pre-incubation T = 4 hr,>5.7 Log/mL
same,Normalized FCV Log Inactivation/mL,pre-incubation T = 8 hr,>5.8 Log/mL
same,FCV Log Inactivation/mL,pre-incubation T = 8 hr,>5.2 Log/mL
same,Normalized FCV Log Inactivation/mL,pre-incubation T = 24 hr,>5.8 Log/mL
same,FCV Log Inactivation/mL,pre-incubation T = 24 hr,>5.1 Log/mL
same,"FCV Titer, 3J TEST",pre-incubation T = 0 hr,4.6 Log PFU/mL
same,"FCV Titer, 3J TEST",pre-incubation T = 2 hr,<0.22* Log PFU/mL
same,"FCV Titer, 3J TEST",pre-incubation T = 4 hr,<0.22* Log PFU/mL
same,"FCV Titer, 3J TEST",pre-incubation T = 8 hr,<0.22* Log PFU/mL
same,"FCV Titer, 3J TEST",pre-incubation T = 24 hr,<0.22* Log PFU/mL
